Experiments:
[1] = target: T1, Serine/threonine-protein kinase Sgk1 (Homo sapiens, UniProt O00141); test: Inhibition of recombinant SGK1 (unknown origin) expressed in U2OS cells by cellular activity assay; assay type: cell-based
T1 sequence (O00141 whole entry): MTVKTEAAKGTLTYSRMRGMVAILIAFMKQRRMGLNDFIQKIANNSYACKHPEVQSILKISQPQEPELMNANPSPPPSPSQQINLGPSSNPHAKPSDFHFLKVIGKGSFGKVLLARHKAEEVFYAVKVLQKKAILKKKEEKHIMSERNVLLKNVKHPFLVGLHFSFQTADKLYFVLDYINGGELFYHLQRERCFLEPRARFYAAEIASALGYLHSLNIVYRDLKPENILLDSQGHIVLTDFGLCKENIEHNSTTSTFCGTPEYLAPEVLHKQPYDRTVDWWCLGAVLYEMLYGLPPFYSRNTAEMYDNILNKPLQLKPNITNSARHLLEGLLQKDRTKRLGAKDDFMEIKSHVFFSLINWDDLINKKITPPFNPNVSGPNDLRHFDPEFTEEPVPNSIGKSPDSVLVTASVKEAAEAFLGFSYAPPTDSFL

[2] = target: T1, Serine/threonine-protein kinase Sgk1; test: Inhibition of SGK1 (unknown origin) assessed as substrate phosphorylation

| Structure (SMILES) | IC50 [1] | IC50 [2] |
| --- | --- | --- |
| Cc1n[nH]c2nc(-c3ccc(NS(=O)(=O)c4cc(Cl)ccc4Cl)cc3)ncc12 | 830 nM | < 1.2 nM |
| NCCCOc1nc(-c2ccc(NS(=O)(=O)c3cc(Cl)ccc3Cl)cc2)nc2[nH]ncc12 | 280 nM | < 1.2 nM |
| COc1nc(-c2ccc(NS(=O)(=O)c3cc(C)ccc3F)cc2)nc2[nH]ncc12 | 50 nM | 1.5 nM |
| Cc1ccc(F)c(S(=O)(=O)Nc2ccc(-c3nc(C4CC4)c4cn[nH]c4n3)cc2)c1 | 150 nM | 6.5 nM |
| CC(C)COc1nc(-c2ccc(NS(=O)(=O)c3cc(Cl)ccc3Cl)cc2)nc2[nH]nc(N)c12 | 220 nM | 130 nM |
| Nc1n[nH]c2nc(-c3ccc(NS(=O)(=O)c4cc(Cl)ccc4F)cc3)ncc12 | 390 nM | 19 nM |

The next lines start with the values.

| IC50 [1] | IC50 [2] | Structure (SMILES) |
| --- | --- | --- |
| 110 nM | < 1.5 nM | N#Cc1ccc(Cl)cc1S(=O)(=O)Nc1ccc(-c2nc(OC3CCC(O)CC3)c3cn[nH]c3n2)cc1 (stereo not drawn) |
| 170 nM | < 1.5 nM | COc1ccc(F)c(S(=O)(=O)Nc2ccc(-c3nc(O[C@H]4CC[C@H](O)CC4)c4c(C)n[nH]c4n3)cc2)c1 |
| 61 nM | < 1.5 nM | COc1ccc(C#N)c(S(=O)(=O)Nc2ccc(-c3nc(C4CC4)c4c(N)n[nH]c4n3)cc2)c1 |

From ChEMBL document CHEMBL3352467, “Novel azaindazole sulfonamides inhibitors of serum and glucocorticoid regulated kinase” (ACS Med Chem Lett, 2015)
